{
  "source": "patent US20080306102A1",
  "about": "“NOVEL SPIROOXYINDOLE COMPOUNDS AND DRUGS CONTAINING SAME” (KOWA CO., LTD., priority 2007, published 2008)",
  "key": {"[1]": {"molecular_target": "T1, human 11β-HSD1 (Homo sapiens, UniProt P28845)", "T1 construct": "expressed in transfected cells; sonicated cell suspension used as lysate", "T1 sequence (P28845 whole entry)": "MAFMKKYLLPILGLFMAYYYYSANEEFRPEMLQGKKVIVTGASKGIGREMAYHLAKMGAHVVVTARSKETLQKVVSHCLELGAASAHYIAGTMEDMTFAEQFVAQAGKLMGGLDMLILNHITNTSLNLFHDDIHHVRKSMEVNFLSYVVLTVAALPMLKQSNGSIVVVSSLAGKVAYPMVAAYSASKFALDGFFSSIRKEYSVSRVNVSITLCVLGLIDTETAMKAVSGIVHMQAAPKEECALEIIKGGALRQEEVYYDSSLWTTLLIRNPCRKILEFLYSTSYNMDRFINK", "experiment": "Human 11β-HSD1 enzyme inhibitory activity (lysate of stably expressing HEK293 cells, cortisol by competitive ELISA)", "assay_type": "biochemical", "conditions": "for IC50: human 11β-HSD1, HEK293 cell lysate, 100 nmol/L cortisone, 400 μmol/L NADPH, 37° C. 1 hour, read-out: IC50(μM) HSD1", "method": "(§1) Human 11β-HSD1-, human 11β-HSD2-Gene Clonings and Establishment of Stably Expressing Cells\n(§2) Human 11β-HSD1- and human 11β-HSD2-gene clonings were conducted using as a template a reverse transcription product of human-liver RNA and human-kidney RNA (CELL APPLICATIONS) respectively, by means of PCR cloning with reference to nucleotide sequences of Genbank Accession No. NM_00.5525 and NM 000196. The obtained PCR products of about 0.9 kbp and 1.2 kbp were subcloned into an expression vector pcDNA3.1+/Zeo (Invitrogen).\n(§3) Human 11β-HSD1- and human 11β-HSD2-expressing vectors were transfected into human kidney-derived cell line, HEK293 cells, using a transfection reagent, jet PEI (Funakoshi). Selection was conducted with 400 μg/mL of zeocine (Invitrogen) to provide stably-expressing-cell clones. The stably expressing cells were suspended in buffer solution A (20 mmol/L Tris-HCl, pH 7.4, 250 mmol/L sucrose, 1 mmol/L EGTA, 1 mmol/L EDTA, 1 mmol/L MgCl2), sonicated, and then stored at −80° C.\n(§4) An enzymatic reaction was conducted using a polystyrene 96-well plate. Each well was added with 1 μL of a test agent dissolved in DMSO and then diluted (0.003 to 3 mmol/L), and further added with 10 μL of cell lysate diluted to a concentration of 0.1 mg/mL to 0.4 mg/mL. Next, 90 μL of buffer solution A containing substrate (100 nmol/L cortisone) and coenzyme (400 μmol/L NADPH) was added and the mixture was incubated at 37° C. for 1 hour. The enzymatic reaction was stopped by treating at 95° C. for 3 minutes. Cortisol that was present in the reaction solution was determined by a competitive ELISA shown below.\nAnti-rabbit IgG antibody (Chemi-con) diluted to 2 μg/mL with carbonate buffer solution (pH 9.6) was added in 100 μL each to a 96-well immuno plate (Nunc) and immobilized by incubating at 4° C. overnight. 50 μL of enzymatic reaction solution was put onto the plates, and further, anti-cortisol antibody (Cosmo Bio) and HRP-labeled cortisol (Cosmo Bio), diluted with buffer solution B (25 mmol/L Tris-HCl pH 7.4, 137 mmol/L NaCl, 2.68 mmol/L KCl), were added in 50 μL respectively and incubated at 4° C. overnight. After washed three times with buffer solution B containing 0.05% Tween 20, the plates were allowed to develop color by adding 100 μL of color reagent, TMB (Moss). The color reaction was stopped by 25 μL of 1 mol/L sulfuric acid and the absorbance was determined at 450 nm with a microplate reader (Molecular Device, VersaMax).\nThe values of human 11β-HSD1 and human 11β-HSD2 activities were subtracted from 100, and the resultant values were regarded as the respective 11β-HSD inhibition rates of example compounds. For each example compound, the value of 50% inhibitory concentration (IC50) was calculated from 11β-HSD inhibition rates at plural concentrations, for 11β-HSD1 and 11β-HSD2 activities."}, "[2]": {"molecular_target": "T2, human 11β-HSD2 (Homo sapiens, UniProt P80365)", "T2 construct": "expressed in transfected cells; sonicated cell suspension used as lysate", "T2 sequence (P80365 1-405)": "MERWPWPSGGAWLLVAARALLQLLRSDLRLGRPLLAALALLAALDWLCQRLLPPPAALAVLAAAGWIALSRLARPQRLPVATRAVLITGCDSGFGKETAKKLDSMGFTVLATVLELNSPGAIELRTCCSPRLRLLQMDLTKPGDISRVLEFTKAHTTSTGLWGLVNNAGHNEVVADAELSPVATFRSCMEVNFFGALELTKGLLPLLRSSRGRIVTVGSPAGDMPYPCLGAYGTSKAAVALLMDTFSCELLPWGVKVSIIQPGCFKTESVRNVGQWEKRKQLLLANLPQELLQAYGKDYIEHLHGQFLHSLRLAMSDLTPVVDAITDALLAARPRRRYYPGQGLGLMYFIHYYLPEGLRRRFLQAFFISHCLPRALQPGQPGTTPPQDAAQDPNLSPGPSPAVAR", "experiment": "Human 11β-HSD2 enzyme inhibitory activity (lysate of stably expressing HEK293 cells, cortisol by competitive ELISA)", "assay_type": "biochemical", "conditions": "human 11β-HSD2, HEK293 cell lysate, 37° C. 1 hour", "method": "as §1, §2, §3, §4\nAnti-rabbit IgG antibody (Chemi-con) diluted to 2 μg/mL with carbonate buffer solution (pH 9.6) was added in 100 μL each to a 96-well immuno plate (Nunc) and immobilized by incubating at 4° C. overnight. […] The color reaction was stopped by 25 μL of 1 mol/L sulfuric acid and the absorbance was determined at 450 nm with a microplate reader (Molecular Device, VersaMax). […]"}},
  "note": "pIC50: −log10 of the molar value. Where two headings read alike, the source gives them in different places.",
  "data": [
    {"smiles": "O=C(COc1ccccc1C(F)(F)F)N1CCC2(CC1)C(=O)Nc1ccccc12", "note": "[Example 1, 1′-{2-(2-trifluoromethylphenoxy)acetyl}spiro(indole-3,4′-piperidine)-2(1H)-one]", "values": [
      {"measurement": "IC50", "setting": "[1]", "value": 0.033, "unit": "µM"}
    ]},
    {"smiles": "Cc1ccccc1OCC(=O)N1CCC2(CC1)C(=O)Nc1ccccc12", "note": "[Example 2, 1′-{2-(2-methylphenoxy)acetyl}spiro(indole-3,4′-piperidine)-2(1H)-one]", "values": [
      {"measurement": "IC50", "setting": "[1]", "value": 0.82, "unit": "µM"}
    ]},
    {"smiles": "O=C(COc1ccccc1I)N1CCC2(CC1)C(=O)Nc1ccccc12", "note": "[Example 10, 1′-{2-(2-iodophenoxy)acetyl}spiro(indole-3,4′-piperdine)-2 (1H)-one]", "values": [
      {"measurement": "IC50", "setting": "[2]", "value": "> 30", "unit": "µM"},
      {"measurement": "IC50", "setting": "[1]", "value": 0.087, "unit": "µM"}
    ]},
    {"smiles": "O=C(COc1ccccc1[N+](=O)[O-])N1CCC2(CC1)C(=O)Nc1ccccc12", "note": "[Example 12, 1′-{2-(2-nitrophenoxy)acetyl}spiro(indole-3,4′-piperidine)-2(1H)-one]", "values": [
      {"measurement": "IC50", "setting": "[1]", "value": 1, "unit": "µM"}
    ]},
    {"smiles": "O=C(COc1cccc(Cl)c1Cl)N1CCC2(CC1)C(=O)Nc1ccccc12", "note": "[Example 40, 1′-{2-(2,3-dichlorophenoxy)acetyl}spiro(indole-3,4′-piperidine)-2(1H)-one]", "values": [
      {"measurement": "IC50", "setting": "[1]", "value": 0.96, "unit": "µM"}
    ]},
    {"smiles": "O=C(COc1ccccc1Br)N1CCC2(CC1)C(=O)Nc1ccccc12", "note": "[Example 49]", "values": [
      {"measurement": "IC50", "setting": "[2]", "value": "> 30", "unit": "µM"},
      {"measurement": "IC50", "setting": "[1]", "value": 0.41, "unit": "µM"}
    ]},
    {"smiles": "CC(C)(C)c1ccccc1OCC(=O)N1CCC2(CC1)C(=O)Nc1ccccc12", "note": "[Example 52, 1′-{2-(2-t-butylphenoxy)acetyl}spiro(indole-3,4′-piperidine)-2(1H)-one]", "values": [
      {"measurement": "IC50", "setting": "[1]", "value": 0.73, "unit": "µM"}
    ]},
    {"smiles": "O=C(CSc1ccccc1C(F)(F)F)N1CCC2(CC1)C(=O)Nc1ccccc12", "note": "[Example 70, 1′-{2-(2-trifluoromethylphenylthio)acetyl}spiro(indole-3,4′-piperidine)-2(1H)-one]", "values": [
      {"measurement": "IC50", "setting": "[1]", "value": 0.16, "unit": "µM"}
    ]},
    {"smiles": "CN1C(=O)C2(CCN(C(=O)COc3ccccc3C(F)(F)F)CC2)c2ccccc21", "note": "[Example 76, 1-methyl-1′-{2-(2-trifluoromethylphenoxy)acetyl}spiro(indole-3,4′-piperidine)-2-one]", "values": [
      {"measurement": "IC50", "setting": "[2]", "value": "> 30", "unit": "µM"},
      {"measurement": "IC50", "setting": "[1]", "value": 0.068, "unit": "µM"}
    ]},
    {"smiles": "CCN1C(=O)C2(CCN(C(=O)COc3ccccc3C(F)(F)F)CC2)c2ccccc21", "note": "[Example 80, 1-ethyl-1′-{2-(2-trifluoromethylphenoxy)acetyl}spiro(indole-3,4′-piperidine)-2-one]", "values": [
      {"measurement": "IC50", "setting": "[1]", "value": 0.67, "unit": "µM"}
    ]},
    {"smiles": "CCCN1C(=O)C2(CCN(C(=O)COc3ccccc3C(F)(F)F)CC2)c2ccccc21", "note": "[Example 81, 1-propyl-1′-{2-(2-trifluoromethylphenoxy)acetyl}spiro(indole-3,4′-piperidine)-2-one]", "values": [
      {"measurement": "IC50", "setting": "[1]", "value": 0.43, "unit": "µM"}
    ]},
    {"smiles": "O=C(COc1ccccc1C(F)(F)F)N1CCC2(CC1)C(=O)N(C1CC1)c1ccccc12", "note": "[Example 84, 1-cyclopropyl-1′-{2-(2-trifluoromethylphenoxy)acetyl}spiro(indole-3,4′-piperidine)-2-one]", "values": [
      {"measurement": "IC50", "setting": "[1]", "value": 0.72, "unit": "µM"}
    ]},
    {"smiles": "O=C(N1CCC2(CC1)C(=O)Nc1ccccc12)C1(c2ccc(Cl)cc2)CC1", "note": "[compound A, 1′-{[1-(4-Chlorophenyl)cyclopropyl]carbonyl}spiro[indole-3, 4′-piperidin]-2(1H)-one, reference compound]", "values": [
      {"measurement": "pIC50", "setting": "[1]; compound A actually synthesized and measured by the applicant, read-out: 50% inhibitory concentration (IC50) for 11β-HSD1 activity", "value": 5.52}
    ]}
  ]
}
